Test results from EP0458892B1, “USE OF CHLORMETHIAZOLE IN THE MANUFACTURE OF A MEDICAMENT FOR THE PREVENTION AND/OR TREATMENT OF NEURODEGENERATION” (priority 1989, dated 1990).

Assays:
[1] = test system: CA1/CA2 hippocampal neurones; assay: Gerbil carotid occlusion ischaemia, test compound administered following induction of ischaemia; format: in vivo; conditions: gerbils; for % Damage to CA1/CA2 Hippocampal Neurones: assessed after 4 days
From the text: (§1) The detailed mechanisms that underlie ischaemia-induced degeneration of hippocampal neurones have yet to be clarified, but the above mentioned gerbil test system has been widely used as a predictive model of neuroprotective activity (see, for example, B.J. Alps, C. Calder, W.K. Hass and A.D. Wilson, Brit. J. Pharmacol., 1988, 93, 877-883; R. Gill, A.C. Foster and G.N. Woodruff, J. Neuroscience, 1987, 7, 3343-3349).
(§2) Ischaemia was induced in gerbils by occlusion of the carotid arteries following the accepted general procedure as described in, for example, EP 230 370 and R. Gill, A.C. Foster and G.N. Woodruff, J. Neuroscience, 1987, 7, 3343-3349.
(§3) Ischaemia was induced in gerbils by 10 minute occlusion of both carotid arteries. Restoration of blood flow after occlusion was checked visually and the animals were allowed to survive for 4 days. The extent of neuronal degeneration in the hippocampus was then assessed. The test compounds were administered (i.p.) as a single dose 30 minutes prior to occlusion.
The general procedure described in (a) above was followed except that the test compound was administered (i.p.) as a single dose at the stated time following the end of the occlusion. No administration was made prior to the occlusion.

[2] = test system: CA1/CA2 hippocampal neurones; assay: Gerbil carotid occlusion ischaemia, test compound administered prior to induction of ischaemia; format: in vivo; conditions: gerbils; for % Damage to CA1/CA2 Hippocampal Neurones: assessed after 4 days
From the text: as §1, §2, §3

With `Cc1ncsc1CCCl` [chlormethiazole, 5-(2-chloroethyl)-4-methylthiazole] the “damage to the CA1/CA2 hippocampal neurones (result in words)” value ([1]; i.p. single dose after the ischaemic insult, summary of Table 2) was “effective in reducing the damage to the CA1/CA2 hippocampal neurones” and the “damage to the CA1/CA2 hippocampal neurones (result in words)” value ([2]; i.p. single dose 30 minutes prior to occlusion, summary of Table 1) was “effective in reducing the damage to the CA1/CA2 hippocampal neurones”.

In the case of `CC(C(O)c1ccc(O)cc1)N1CCC(Cc2ccccc2)CC1` (centres unmarked) [Ifenprodil], the “% Damage to CA1/CA2 Hippocampal Neurones” value ([2]; 4mg/kg i.p. single dose 30 minutes prior to 10 minute occlusion of both carotid arteries) is reported as 62 ± 8.0%.

With `Cc1ncsc1CCCl` [Chlormethiazole ethanedisulphonate] the “% Damage to CA1/CA2 Hippocampal Neurones” value ([1]; 50mg/kg i.p. single dose 30 minutes after the end of 10 minute occlusion) was 69.4 ± 6.9%, the “% Damage to CA1/CA2 Hippocampal Neurones” value ([1]; 100mg/kg i.p. single dose 30 minutes after the end of 10 minute occlusion) was 12.8 ± 10.4% and the “% Damage to CA1/CA2 Hippocampal Neurones” value ([1]; 100mg/kg i.p. single dose 1 hour after the end of 10 minute occlusion) was 14.3 ± 8.7%. For the same molecule, the “% Damage to CA1/CA2 Hippocampal Neurones” value ([1]; 100mg/kg i.p. single dose 2 hours after the end of 10 minute occlusion) was 7.25 ± 4.8%, the “% Damage to CA1/CA2 Hippocampal Neurones” value ([1]; 100mg/kg i.p. single dose 6 hours after the end of 10 minute occlusion) was 45.6 ± 14% and the “% Damage to CA1/CA2 Hippocampal Neurones” value ([2]; 50mg/kg i.p. single dose 30 minutes prior to 10 minute occlusion of both carotid arteries) was 37.6 ± 13.4%. For the same molecule, the “% Damage to CA1/CA2 Hippocampal Neurones” value ([2]; 100mg/kg i.p. single dose 30 minutes prior to 10 minute occlusion of both carotid arteries) was less than 5%.

`C[C@]12N[C@H](Cc3ccccc31)c1ccccc12` [MK 801] was tested, and the “% Damage to CA1/CA2 Hippocampal Neurones” value ([2]; 3mg/kg i.p. single dose 30 minutes prior to 10 minute occlusion of both carotid arteries) was less than 5%.
